Patent US11896650B2, “Enhancing chemotherapy in medulloblastoma and glioblastoma with high basal p53 levels” (GEORGETOWN UNIVERSITY, priority 2018, dated 2024)

Key:
Assay type in all cases: cell-based
p110 = test: Cell viability of cells overexpressing p110 with added mTOR/AKT signaling inhibitor
Protocol: FIGS. 3A, 3B, 3C, 3D, and 3E show the effects of over expression of p110-caax on D556 and D283 cell survival. D556 cells were transformed with p110 or control plasmid, and Western blots for p110 and β-actin were run (FIG. 3A). The effects of overexpression of p110 on cell viability were determined via Trypan blue assay on D283 cells (FIG. 3B, upper right panel) and D556 cells (FIG. 3C, lower left panel) showing Trypan blue assay results; lower middle panel showing). Cell viability for D556 cells was also measured by propidium iodide (PI) staining and measured by flow cytometry (FIG. 3D, lower middle panel)). Reversal of chemosensitivity induced by p110 overexpression is shown when an inhibitor of mTOR/AKT signaling (Rad001/Everolimus) is added (FIG. 3E)
D556 cells were transformed with p110 or control plasmid and Western blots for p110 and β-actin were run (FIG. 3A). The effects of overexpression of p110 on cell viability were determined via Trypan blue assay on D283 cells (FIG. 3B) and D556 cells (FIG. 3C). Cell viability for D556 cells was also measured by propidium iodide (PI) staining and measured by flow cytometry (FIG. 3D).

pmTOR in D556 cells = test: Western blot for pmTOR in D556 cells infected with p53 shRNA or control pLKO lentivirus
Protocol: D556 cells were infected with either p53 shRNA or control pLKO lentivirus and Western blotting was performed to show the effect of p53 inhibition on pmTOR.

D556 cells [1] = test: Cell survival of D556 cells after p53 knockdown and drug treatment; settings: 18 hours treatment
Protocol: (§1) Comparative sensitivities of D556 cells treated with cisplatin (FIG. 6B) or vincristine (FIG. 6C) were tested at the concentrations shown and in the presence or absence of thymosin β-4 (5 nM). * p<0.05, N>3 separate experiments.
(§2) For chemosensitivity testing, the effects of p53 knockdown on cell survival of D556 cells treated with doxorubicin (dox), vincristine (vinc) and cisplatin (csp) was further assessed.

D556 cells [2] = test: Apoptotic cell death of D556 cells after p53 and mTOR shRNA knockdown and drug treatment (trypan blue, annexin V/PI); settings: p53 loss plus mTOR knockdown
Protocol: FIGS. 2A, 2B and 2C show the effect of silencing of p53 and mTOR in D556 cells. FIG. 2A and FIG. 2B are bar graphs showing the proportion of cells undergoing apoptotic cell death as a result of infection with p53 shRNA, control pLKO, mTOR and both p53 and mTOR lentivirus in D556 cells treated for 18 hrs with DMSO, VMY (30 uM) or doxorubicin (1 uM) as assessed using Trypan blue (FIG. 2A) and annexin V and propidium iodide (PI) staining (FIG. 2B) and measured by flow cytometry. Data are shown as percent change in staining versus pLKO-control infected cells.
The proportion of cells undergoing apoptotic cell death as a result of infection with p53 shRNA, control pLKO, mTOR and both p53 and mTOR lentivirus in D556 cells treated for 18 hrs with DMSO, VMY (30 uM) or doxorubicin (1 uM) was assessed using trypan blue (FIG. 2A) and annexin V and propidium iodide (PI) staining (FIG. 2B) and measured by flow cytometry. Data were determined as the percent change in staining versus pLKO-control infected cells.

D556 cells [3] = test: Chemosensitivity testing of D556 cells with cisplatin or vincristine in presence or absence of Tβ-4; settings: Tβ-4 5 nM; p<0.05
Protocol: as §1, §2

D283 cells = test: Cell viability of D283 cells treated with chemotherapeutic agents with or without Tβ-4 (propidium iodide staining, flow cytometry)
Protocol: (§3) FIGS. 4A, 4B, and 4C show the effects of thymosin beta-4 (Tβ-4) on D556 and D283 cell survival. For cell viability assays, D556 cells (FIG. 4A) and D283 cells (FIG. 4B) were treated with DMSO, doxorubicin, or VMY in the presence or absence of Tβ-4, and cell viability as measured using propidium iodide (PI) staining with flow cytometry. Control cells were untreated. […] GADPH expression was used as a control.
(§4) The effect of Tβ-4 was evaluated using a cell viability assay for D556 and D283 cells. D556 and D283 cells were treated with 5 nM Tβ-4 and either doxorubicin or VMY. Viability of D556 cells (FIG. 4A) and of D283 cells (FIG. 4B) was measured using propidium iodide (PI) staining with flow cytometry. A dose response curve was performed for D556 cells treated with vincristine alone or vincristine plus Tβ-4 using a cellular proliferation assay kit wst-1 (FIG. 4C).

[4] = tested on: Akt, PP2A (α and c subunit), PARP and RIP1 in D556 cells; test: Western blot of D556 cells after Tβ-4 treatment
Protocol: FIGS. 5A, 5B, 5C and 5D are Western blots showing that Tβ-4 treatment of D556 cells induces expression of Akt, PP2A (α and c subunits), PARP, and RIP1.
To further assess the mechanism of effect of Tβ-4 treatment of D556 cells, Western blot were performed.

D556 cells [5] = test: Cell viability of D556 cells treated with chemotherapeutic agents with or without Tβ-4 (propidium iodide staining, flow cytometry; wst-1)
Protocol: as §3, §4

[6] = with doxorubicin, vincristine, VMY-1-103

Compound: CO[C@H]1C[C@@H]2CC[C@@H](C)[C@@](O)(O2)C(=O)C(=O)N2CCCC[C@H]2C(=O)O[C@H]([C@H](C)C[C@@H]2CC[C@@H](OCCO)[C@H](OC)C2)CC(=O)[C@H](C)/C=C(\C)[C@@H](O)[C@@H](OC)C(=O)[C@H](C)C[C@H](C)/C=C/C=C/C=C/1C [Rad001/Everolimus, Everolimus]
- effect on chemosensitivity induced by p110 overexpression (p110): reversed the chemosensitivity induced by p110

Compound: CC(C)[C@H](CO)Nc1nc(Nc2ccc(C(=O)NCCNS(=O)(=O)c3cccc4c(N(C)C)cccc34)c(Cl)c2)c2ncn(C(C)C)c2n1 [VMP]
- pmTOR level in cells infected with p53 shRNA vs control pLKO lentivirus (pmTOR in D556 cells): induction of pmTOR

Compound: N.N.[Cl][Pt][Cl] [cisplatin]
- cell survival of p53 shRNA infected D556 cells vs control pLKO lentivirus (D556 cells [1]): lower percentage of cell survival

Compound: COc1cccc2c1C(=O)c1c(O)c3c(c(O)c1C2=O)C[C@@](O)(C(=O)CO)C[C@@H]3O[C@H]1C[C@H](N)[C@H](O)[C@H](C)O1 [doxorubicin]
- pmTOR level in cells infected with p53 shRNA vs control pLKO lentivirus (pmTOR in D556 cells): induction of pmTOR
- cell survival of p53 shRNA infected D556 cells vs control pLKO lentivirus (D556 cells [1]): lower percentage of cell survival
- chemoresistance of p53-suppressed D556 cells after shRNA knockdown of mTOR (D556 cells [2]): restoring chemoresistance

Compound: CC[C@]1(O)C[C@H]2CN(CCc3c([nH]c4ccccc34)[C@@](C(=O)OC)(c3cc4c(cc3OC)N(C=O)[C@H]3[C@@](O)(C(=O)OC)[C@H](OC(C)=O)[C@]5(CC)C=CCN6CC[C@]43[C@@H]65)C2)C1 [vincristine]
- cell survival of p53 shRNA infected D556 cells vs control pLKO lentivirus (D556 cells [1]): lower percentage of cell survival
- chemoresistance of p53-suppressed D556 cells after shRNA knockdown of mTOR (D556 cells [2]): restoring chemoresistance

Compound: Tβ-4: multifunctional regenerative peptide, sequence MSDKPDMAEIEKFDKSKLKKTETQEKNPLPSKETIEQEKQAGES (SEQ ID NO:1); PI3K activator; commercially available as RGN-352 (MSDKPDMAEIEKFDKSKLKKTETQEKNPLPSKETIEQEKQAGES; listed as Homo sapiens)
- sensitivity of D556 cells to cisplatin in presence vs absence of Tβ-4 (D556 cells [3]): significantly more sensitivity
- sensitivity of D556 cells to vincristine in presence vs absence of Tβ-4 (D556 cells [3]): significantly more sensitivity
- Tβ-4 sensitivity of cell line (D283 cells; D286 cells): insensitive
- protection of D283 (p53 low) cells from chemotherapeutic agents (D283 cells; [6]): protects D283 (p53 low) cells from the same drugs
- protein induction by Western blot [4]: induces Akt, PP2A (α and c subunit), PARP and RIP1
- Tβ-4 sensitivity of cell line (D556 cells [5]; D556 cells): sensitive
- sensitization of MB cells with high p53 levels to chemotherapeutic agents (D556 cells [5]; [6]): sensitizes MB cells with high p53 levels to chemotherapeutic agents
